{
  "source": "patent US11857537B2",
  "about": "“Use of prostacyclin antagonists for treating ocular surface nociception” (JENIVISION INC., priority 2016, dated 2024)",
  "key": {"[1]": {"tested_on": "ocular surface nociception induced by corneal scarification in Cynomolgus monkeys", "experiment": "Mild corneal abrasion (scarification) model of ocular discomfort, nictation (blinking) rate", "format": "in vivo, Cynomolgus monkey", "method": "A prostanoid IP receptor antagonist (4,5-dihydro-N-[4-[[4-(1-methylethoxy)phenyl]methyl]phenyl]-1H-imadazol-2-amine RO-1138452, CAY 10441), at a dose of 0.3% w/v in an aqueous 1% polysorbate 80 in Tris-HCL (a standard ocular vehicle used in testing of ophthalmic drugs), was administered topically to the ocular surface of […] Cynomolgus monkeys. Cynomologus monkeys are the closest animal model for humans. A model that replicates an actual clinically encountered ocular condition, namely corneal abrasion, was employed.\nAs an animal model indicative of both ocular discomfort and pain, mild corneal scarification and measurement of the resultant increased blinking (nictation) rate was employed. The species chosen was the Cynomologous monkey and there are reasons for this selection. […] Increased rate of blinking (nictation) is recognized as a reliable end-point indicative of discomfort and pain and was, therefore, used in the studies described herein. There is a linear correlation between ocular surface sensory-evoked stimulation and blink rate in humans (Wu et al., 2014). Increased blinking frequency is associated with a diverse variety of conditions that elicit ocular discomfort and pain such as air borne noxious contaminants (Lang et al., 2008), acidic solutions (Collejo et al, 2015), dry eye conditions and wearing contact lenses (Wu et al., 2014). Thus, increased blinking rate is a universal indicator of ocular surface nociception resulting in discomfort and pain.\nThe drug formulation was administered post-scarification of the cornea, and at identical time points on two subsequent days. Ocular discomfort was monitored as the nictation (blinking) rate. Blinking is an established human behavioral response to corneal discomfort and irritation (Lang et al., 2008; Wu et al., 2014; Callejo et al., 2015). […]\nA total of eight naïve Cynomolgus monkeys were used. […] The nictation rate (blinking rate) was measured to provide quantification of discomfort. […]"}, "ocular pain": {"tested_on": "ocular pain", "experiment": "Patient case examples: ocular pain after topical ocular administration", "format": "in vivo, human", "details": "Example II: person, extreme ocular discomfort with pain; 0.3% w/v solution, then twice a day", "source_text": "A person was suffering from extreme ocular discomfort which was associated with pain. […] A person suffers a grade 2 chemical eye burn from an acidic substance. Despite being administered prednisolone acetate 1% every two hours, severe ocular pain persists. The physician will administer Formula 3 from Table I, three times a day. […] After 7-21 days, the patient experiences corneal/conjunctival epithelium and keratocytes proliferate. Collagen synthesis begins. A person suffers from aqueous tear deficient dry eye associated occasionally with moderate to severe sharp ocular pain."}},
  "note": "“Also recorded” adds a separate entry of the source.",
  "data": [
    {"smiles": "CC(C)Oc1ccc(Cc2ccc(NC3=NCCN3)cc2)cc1", "note": "[4,5-dihydro-N-[4-[[4-(1-methylethoxy)phenyl]methyl]phenyl]-1H-imadazol-2-amine]", "values": [
      {"measurement": "nictation rate in drug treated eyes compared with vehicle", "setting": "[1]; 0.3% w/v topical once daily on Day 4 and Day 5 after corneal scarification on Day 3, n=4 per group, P<0.01 vs vehicle", "value": "statistically significantly lower"},
      {"measurement": "ocular surface nociception induced by scarification", "setting": "[1]; 0.3% w/v topical, P≤0.01 non-paired t-test", "value": "significantly reduced"},
      {"measurement": "difference in blinking rate, control vs. treated group", "setting": "[1]; two days after the surgery (Day 5-16:00)", "value": "minimal"},
      {"measurement": "ocular pain", "setting": "ocular pain", "value": "immediate reduction of ocular pain; also recorded: all pain is reduced and eventually disappears"}
    ]}
  ]
}
